Results from PubChem BioAssay (NCI).
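Assay format: 96-well plates, 48-hour exposure. The concentration for 50% growth inhibition is given as GI50. TGI: concentration producing complete growth inhibition.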

Columns and labels:
Experiment in all cases: NCI anticancer screen, dose series, 48 h
[1] = system: UO-31 renal
[2] = system: SW-620 colon
[3] = system: NCI/ADR-RES ovarian
[4] = system: SNB-19 CNS
[5] = system: CCRF-CEM leukemia
[6] = system: EKVX NSCLC
[7] = system: OVCAR-4 ovarian
[8] = system: MALME-3M melanoma
[9] = system: OVCAR-8 ovarian
[10] = system: HS 578T breast
[11] = system: RXF 393 renal
[12] = system: TK-10 renal
[13] = system: KM12 colon
[14] = system: MDA-MB-231 breast
[15] = system: MCF7 breast
[16] = system: SNB-75 CNS
[17] = system: 786-0 renal
[18] = system: COLO 205 colon
[19] = system: SK-OV-3 ovarian
[20] = system: SK-MEL-28 melanoma
[21] = system: T-47D breast
[22] = system: IGROV1 ovarian
[23] = system: MDA-MB-435
[24] = system: HOP-92 NSCLC
[25] = system: SF-295 CNS
[26] = system: NCI-H226 lung
[27] = system: LOX IMVI melanoma
[28] = system: SN12C renal
[29] = system: SR leukemia
[30] = system: SF-268 CNS
[31] = system: ACHN renal
[32] = system: SF-539 CNS
[33] = system: CAKI-1 renal
[34] = system: MOLT-4 leukemia
[35] = system: UACC-62 melanoma
[36] = system: OVCAR-5 ovarian
[37] = system: SK-MEL-2 melanoma
[38] = system: NCI-H460 lung
[39] = system: RPMI-8226 leukemia
[40] = system: DU-145 prostate
[41] = system: HOP-62 NSCLC
[42] = system: M14 melanoma
[43] = system: UACC-257 melanoma
[44] = system: A549 NSCLC
[45] = system: NCI-H23 lung
[46] = system: SK-MEL-5 melanoma
[47] = system: HCC-2998 colon
[48] = system: HCT-15 colon
[49] = system: PC-3 prostate
[50] = system: U251 CNS
[51] = system: BT-549 breast
[52] = system: HL-60(TB) leukemia
[53] = system: A498 renal
[54] = system: HCT-116 colon
[55] = system: K-562 leukemia
[56] = system: NCI-H522 lung
[57] = system: HT29 colon
[58] = system: OVCAR-3 ovarian

Cn1ccnc1C(=O)/C=C/c1ccc(CNC(=O)c2ccc(F)cc2)cc1
GI50 [1]: 2.63 µM
TGI [1]: 6.19 µM
GI50 [2]: 2.77 µM
TGI [2]: 8.72 µM
GI50 [3]: 6.06 µM
TGI [3]: > 25 µM
GI50 [4]: 3.39 µM
TGI [4]: 10.5 µM
GI50 [5]: 2.55 µM
TGI [5]: > 25 µM
GI50 [6]: 10.4 µM
TGI [6]: > 25 µM
GI50 [7]: 5.49 µM
TGI [7]: > 25 µM
GI50 [8]: 4.48 µM
TGI [8]: 12.2 µM
GI50 [9]: 6.62 µM
TGI [9]: > 25 µM
GI50 [10]: 8.13 µM
TGI [10]: > 25 µM
GI50 [11]: 3.11 µM
TGI [11]: 7.27 µM
GI50 [12]: 5.92 µM
TGI [12]: 17.4 µM
GI50 [13]: 2.13 µM
TGI [13]: 5.44 µM
GI50 [14]: 5.9 µM
TGI [14]: > 25 µM
GI50 [15]: 1.67 µM
TGI [15]: > 25 µM
GI50 [16]: 2.5 µM
TGI [16]: > 25 µM
GI50 [17]: 4.12 µM
TGI [17]: 12.1 µM
GI50 [18]: 2.78 µM
TGI [18]: 7.05 µM
GI50 [19]: 7.54 µM
TGI [19]: > 25 µM
GI50 [20]: 4.82 µM
TGI [20]: 11.6 µM
GI50 [21]: 2.54 µM
TGI [21]: 22.9 µM
GI50 [22]: 3.03 µM
TGI [22]: 12.1 µM
GI50 [23]: 4.08 µM
TGI [23]: 10.4 µM
GI50 [24]: 5.32 µM
TGI [24]: 24.7 µM
GI50 [25]: 9.12 µM
TGI [25]: > 25 µM
GI50 [26]: 6.9 µM
TGI [26]: > 25 µM
GI50 [27]: 1.19 µM
TGI [27]: 4.4 µM
GI50 [28]: 6.67 µM
TGI [28]: > 25 µM
GI50 [29]: 0.792 µM
TGI [29]: > 25 µM
GI50 [30]: 2.98 µM
TGI [30]: 9.42 µM
GI50 [31]: 4.17 µM
TGI [31]: 8.72 µM
GI50 [32]: 2.59 µM
TGI [32]: 6.28 µM
GI50 [33]: 2.36 µM
TGI [33]: > 25 µM
GI50 [34]: 5.03 µM
TGI [34]: 15.8 µM
GI50 [35]: 4.26 µM
TGI [35]: 9.47 µM
GI50 [36]: 3.54 µM
TGI [36]: 9.04 µM
GI50 [37]: 4.95 µM
TGI [37]: 14.8 µM
GI50 [38]: 3.4 µM
TGI [38]: 10.5 µM
GI50 [39]: 1.01 µM
TGI [39]: 5.98 µM
GI50 [40]: 1.5 µM
TGI [40]: 4.89 µM
GI50 [41]: 3.69 µM
TGI [41]: 12.5 µM
GI50 [42]: 4.7 µM
TGI [42]: 12.2 µM
GI50 [43]: 5.52 µM
TGI [43]: 19.2 µM
GI50 [44]: 5.74 µM
TGI [44]: > 25 µM
GI50 [45]: 3.58 µM
TGI [45]: 9.3 µM
GI50 [46]: 7.08 µM
TGI [46]: 21 µM
GI50 [47]: 3.8 µM
TGI [47]: 7.54 µM
GI50 [48]: 1.9 µM
TGI [48]: > 25 µM
GI50 [49]: 3.87 µM
TGI [49]: 10.8 µM
GI50 [50]: 2.35 µM
TGI [50]: 6.7 µM
GI50 [51]: 2.61 µM
TGI [51]: 6.77 µM
GI50 [52]: 2.99 µM
TGI [52]: 10.4 µM
GI50 [53]: 3.35 µM
TGI [53]: 6.79 µM
GI50 [54]: 3.46 µM
TGI [54]: 8.47 µM
GI50 [55]: 1.02 µM
TGI [55]: > 25 µM
GI50 [56]: 4.04 µM
TGI [56]: 7.74 µM
GI50 [57]: 2.98 µM
TGI [57]: 7.36 µM

CCN(CC)CCOc1ccc(C(=C(C)Cc2ccc(OC)cc2)c2ccc(OCCN(CC)CC)cc2)cc1
GI50 [1]: 3.42 µM
TGI [1]: 6.82 µM
GI50 [2]: 3.75 µM
TGI [2]: 7.71 µM
GI50 [3]: 4.24 µM
TGI [3]: 8.74 µM
GI50 [4]: 4.44 µM
TGI [4]: 8.84 µM
GI50 [5]: 2.65 µM
TGI [5]: 7.2 µM
GI50 [6]: 3.84 µM
TGI [6]: 9.13 µM
GI50 [7]: 4.48 µM
TGI [7]: 10.7 µM
GI50 [8]: 6.12 µM
TGI [8]: 10.5 µM
GI50 [9]: 6.08 µM
TGI [9]: 15.2 µM
GI50 [10]: 4.34 µM
TGI [10]: 11.5 µM
GI50 [11]: 1.42 µM
TGI [11]: 5.11 µM
GI50 [12]: 3.86 µM
TGI [12]: 8.67 µM
GI50 [13]: 3.66 µM
TGI [13]: 7.57 µM
GI50 [14]: 3.93 µM
TGI [14]: 7.91 µM
GI50 [15]: 2.86 µM
TGI [15]: 6.51 µM
GI50 [16]: 13.4 µM
TGI [16]: 25 µM
GI50 [17]: 3.42 µM
TGI [17]: 7.04 µM
GI50 [18]: 4.45 µM
TGI [18]: 10.3 µM
GI50 [19]: 5.06 µM
TGI [19]: 10.5 µM
GI50 [20]: 3.72 µM
TGI [20]: 7.21 µM
GI50 [21]: 4.06 µM
TGI [21]: 10.9 µM
GI50 [22]: 4.18 µM
TGI [22]: 8.31 µM
GI50 [23]: 3.96 µM
TGI [23]: 7.48 µM
GI50 [24]: 1.07 µM
TGI [24]: 8.98 µM
GI50 [25]: 4.36 µM
TGI [25]: 8.49 µM
GI50 [26]: 4.37 µM
TGI [26]: 11.3 µM
GI50 [27]: 3.04 µM
TGI [27]: 6.44 µM
GI50 [28]: 3.55 µM
TGI [28]: 7.19 µM
GI50 [29]: 0.805 µM
TGI [29]: 3.1 µM
GI50 [30]: 4.22 µM
TGI [30]: 9.16 µM
GI50 [31]: 4.46 µM
TGI [31]: 8.67 µM
GI50 [32]: 3.7 µM
TGI [32]: 7.37 µM
GI50 [33]: 3.63 µM
TGI [33]: 7.38 µM
GI50 [34]: 3.13 µM
TGI [34]: 7.55 µM
GI50 [35]: 4.59 µM
TGI [35]: 8.87 µM
GI50 [36]: 3.68 µM
TGI [36]: 7.32 µM
GI50 [37]: 4.8 µM
TGI [37]: 9.83 µM
GI50 [38]: 3.92 µM
TGI [38]: 7.8 µM
GI50 [39]: 3.27 µM
TGI [39]: 8.39 µM
GI50 [40]: 4.59 µM
TGI [40]: 10.6 µM
GI50 [41]: 4.7 µM
TGI [41]: 11.2 µM
GI50 [43]: 4.62 µM
TGI [43]: 9.29 µM
GI50 [44]: 4.52 µM
TGI [44]: 10.6 µM
GI50 [45]: 4.59 µM
TGI [45]: 10.5 µM
GI50 [46]: 4 µM
TGI [46]: 7.47 µM
GI50 [47]: 3.57 µM
TGI [47]: 6.97 µM
GI50 [48]: 2.65 µM
TGI [48]: 6.25 µM
GI50 [49]: 3.88 µM
TGI [49]: 8.15 µM
GI50 [50]: 3.99 µM
TGI [50]: 8.34 µM
GI50 [51]: 3.84 µM
TGI [51]: 7.48 µM
GI50 [52]: 3.46 µM
TGI [52]: 7.77 µM
GI50 [53]: 3.67 µM
TGI [53]: 16 µM
GI50 [58]: 3.2 µM
TGI [58]: 7.5 µM
GI50 [54]: 2.95 µM
TGI [54]: 6.51 µM
GI50 [55]: 0.609 µM
TGI [55]: 2.08 µM
GI50 [56]: 4.56 µM
TGI [56]: 9.86 µM
GI50 [57]: 2.83 µM
TGI [57]: 7.8 µM

NC(N)=Nc1ccc(Nc2cccc(Oc3ccc(Cl)c(C(F)(F)F)c3)c2)cn1
GI50 [3]: 15.6 µM
TGI [3]: > 100 µM
GI50 [16]: 1.6 µM
TGI [16]: 3.33 µM
GI50 [19]: 3.5 µM
TGI [19]: 13.2 µM
GI50 [21]: 1.62 µM
TGI [21]: 4.55 µM
GI50 [55]: 2.11 µM
TGI [55]: > 100 µM
